{"source": "paper PMC9837035", "about": "(Nature Communications, 2023)", "key": {"[1]": {"assay": "Body weight of mice during 5-week administration", "type": "in vivo", "description": "The dosing solution contained 15% DMSO, 17.5% Cremophor EL, 8.75% EtOH, 8.75% HCO-40, and 50% PBS. Blood samples were collected once a week by Retro Orbital Sampling (75 μL Calibrated Micropipette; Drummond Scientific Company) during isoflurane anesthesia. Blood RNA was extracted using NucleoSpin RNA Blood (Takara Bio Inc.). The weight of each mouse was measured every 3 or 4 days."}, "[2]": {"assay": "Liver microsomal stability assay, rat", "type": "in vitro ADME", "conditions": "for Metabolic stability, % remaining of RK-701: Rat", "description": "[Human/Rat] Liver microsome analyses (human, rat) were performed in triplicate by the Sumika Chemical Analysis Service (SCAS) according to the standard protocols. […] [Dog/Monkey] Liver microsome analyses (dog, monkey) were performed in duplicate by RIKEN according to the same protocols as SCAS."}, "G9a": {"target": "T1, G9a (Homo sapiens, UniProt Q96KQ7)", "T1 sequence (Q96KQ7 1-1210)": "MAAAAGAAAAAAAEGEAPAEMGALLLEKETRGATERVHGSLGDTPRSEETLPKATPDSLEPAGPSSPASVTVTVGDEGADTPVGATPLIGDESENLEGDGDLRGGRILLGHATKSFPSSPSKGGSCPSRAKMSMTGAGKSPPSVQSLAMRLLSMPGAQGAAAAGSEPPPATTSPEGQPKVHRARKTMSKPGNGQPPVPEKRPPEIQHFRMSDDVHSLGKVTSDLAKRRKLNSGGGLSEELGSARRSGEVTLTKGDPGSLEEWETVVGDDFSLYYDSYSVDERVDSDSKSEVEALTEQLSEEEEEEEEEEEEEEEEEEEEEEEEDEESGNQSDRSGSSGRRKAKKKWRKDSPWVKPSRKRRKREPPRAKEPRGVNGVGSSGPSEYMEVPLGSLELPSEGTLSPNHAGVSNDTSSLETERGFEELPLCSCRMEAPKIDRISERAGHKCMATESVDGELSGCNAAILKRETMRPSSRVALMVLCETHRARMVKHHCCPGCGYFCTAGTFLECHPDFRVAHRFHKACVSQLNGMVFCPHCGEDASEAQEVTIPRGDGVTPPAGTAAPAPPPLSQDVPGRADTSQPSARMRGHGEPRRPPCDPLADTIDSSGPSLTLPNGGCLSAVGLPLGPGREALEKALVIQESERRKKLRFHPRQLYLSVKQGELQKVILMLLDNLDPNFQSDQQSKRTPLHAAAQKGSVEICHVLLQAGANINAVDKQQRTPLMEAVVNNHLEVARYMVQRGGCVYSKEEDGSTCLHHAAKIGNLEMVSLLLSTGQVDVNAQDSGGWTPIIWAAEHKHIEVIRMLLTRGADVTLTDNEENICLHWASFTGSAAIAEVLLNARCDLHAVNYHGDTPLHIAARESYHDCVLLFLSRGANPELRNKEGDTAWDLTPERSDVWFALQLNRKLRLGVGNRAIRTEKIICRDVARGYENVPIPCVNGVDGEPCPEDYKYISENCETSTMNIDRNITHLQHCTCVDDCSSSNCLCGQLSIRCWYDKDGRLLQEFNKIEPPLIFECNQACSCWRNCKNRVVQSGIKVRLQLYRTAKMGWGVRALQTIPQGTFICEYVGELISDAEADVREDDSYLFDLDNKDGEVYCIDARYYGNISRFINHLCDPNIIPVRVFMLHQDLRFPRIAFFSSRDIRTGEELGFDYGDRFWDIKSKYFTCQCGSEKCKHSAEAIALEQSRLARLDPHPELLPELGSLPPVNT", "assay": "biochemical"}}, "note": "“And” between values parts separate entries of the source, which are not always exact repeats. Equal entries are not always repeated.", "data": [{"smiles": "Cc1c(C(=O)NC(CCC2CC2)C(=O)Nc2ccc(C#N)cc2)[nH]c2c1C(=O)CC(C)(C)C2", "note": "(centres unmarked) [RK-701]", "values": [{"measurement": "body weight of individual mice", "setting": "[1]; 20 mg/kg i.p., Day 0", "result": "17.8 g and 17.5 g and 16.8 g and 16.2 g and 16.4 g"}, {"measurement": "body weight of individual mice", "setting": "[1]; 20 mg/kg i.p., Day 4", "result": "18.5 g and 17.7 g and 17.3 g and 17.2 g and 16.8 g and 17.4 g"}, {"measurement": "body weight of individual mice", "setting": "[1]; 20 mg/kg i.p., Day 8", "result": "18.4 g and 18.1 g and 17.4 g and 17.7 g and 16.7 g and 17.8 g"}, {"measurement": "body weight of individual mice", "setting": "[1]; 20 mg/kg i.p., Day 11", "result": "18.6 g and 18.2 g and 17.5 g and 17.6 g and 16.5 g and 17.1 g"}, {"measurement": "body weight of individual mice", "setting": "[1]; 20 mg/kg i.p., Day 15", "result": "18.7 g and 18.1 g and 17.7 g and 18.2 g and 16.6 g"}, {"measurement": "body weight of individual mice", "setting": "[1]; 20 mg/kg i.p., Day 18", "result": "19.3 g and 18.2 g and 17.8 g and 16.6 g"}, {"measurement": "body weight of individual mice", "setting": "[1]; 20 mg/kg i.p., Day 22", "result": "18 g and 19 g and 18.5 g and 17 g and 18.6 g"}, {"measurement": "body weight of individual mice", "setting": "[1]; 20 mg/kg i.p., Day 25", "result": "20.2 g and 19.5 g and 17.7 g and 18.3 g and 17.8 g and 18.8 g"}, {"measurement": "body weight of individual mice", "setting": "[1]; 20 mg/kg i.p., Day 29", "result": "20.4 g and 18.2 g and 19.8 g and 18.7 g and 16 g and 18.5 g"}, {"measurement": "body weight of individual mice", "setting": "[1]; 20 mg/kg i.p., Day 32", "result": "19.9 g and 20 g and 19 g and 19.7 g and 19.6 g"}, {"measurement": "body weight of individual mice", "setting": "[1]; 50 mg/kg i.p., Day 0", "result": "14.7 g and 16.5 g and 17.3 g and 16.4 g and 17.4 g"}, {"measurement": "body weight of individual mice", "setting": "[1]; 50 mg/kg i.p., Day 4", "result": "15.3 g and 18.3 g and 17.7 g and 17.3 g and 17.8 g"}, {"measurement": "body weight of individual mice", "setting": "[1]; 50 mg/kg i.p., Day 8", "result": "14.8 g and 17.7 g and 18.3 g and 18.1 g"}, {"measurement": "body weight of individual mice", "setting": "[1]; 50 mg/kg i.p., Day 11", "result": "16 g and 18 g and 18.7 g and 17.9 g and 18.5 g"}, {"measurement": "body weight of individual mice", "setting": "[1]; 50 mg/kg i.p., Day 15", "result": "15 g and 18 g and 19.1 g and 17.9 g and 18.5 g"}, {"measurement": "body weight of individual mice", "setting": "[1]; 50 mg/kg i.p., Day 18", "result": "15.1 g and 18.4 g and 19.3 g and 19.5 g"}, {"measurement": "body weight of individual mice", "setting": "[1]; 50 mg/kg i.p., Day 22", "result": "15.5 g and 18.9 g and 19.7 g and 19.8 g"}, {"measurement": "body weight of individual mice", "setting": "[1]; 50 mg/kg i.p., Day 25", "result": "16.7 g and 19.1 g and 20.6 g and 19.9 g and 20.4 g"}, {"measurement": "body weight of individual mice", "setting": "[1]; 50 mg/kg i.p., Day 29", "result": "16.3 g and 18.4 g and 19.6 g and 19 g and 20 g"}, {"measurement": "body weight of individual mice", "setting": "[1]; 50 mg/kg i.p., Day 32", "result": "16.7 g and 19.5 g and 21.2 g and 20 g"}, {"measurement": "mouse body weights", "setting": "[1]; five-week continuous administration", "result": "no effect on mouse body weights"}, {"measurement": "Metabolic stability, % remaining of RK-701", "setting": "[2]; Time 5, replicate values", "result": "89% and 81.8%"}, {"measurement": "Metabolic stability, % remaining of RK-701", "setting": "[2]; Time 10, replicate values", "result": "86.2% and 80.2%"}, {"measurement": "Metabolic stability, % remaining of RK-701", "setting": "[2]; Time 20, replicate values", "result": "63% and 58.9%"}, {"measurement": "Metabolic stability, % remaining of RK-701", "setting": "[2]; Time 30, replicate values", "result": "53.3% and 55.8%"}, {"measurement": "Metabolic stability, % remaining of RK-701", "setting": "[2]; Time 60, replicate values", "result": "36.1% and 33.5%"}, {"measurement": "remaining at 5 min, 1 µM", "setting": "[2]; rat, liver microsomes, Metabolic stability, % remaining of RK-701, Rat, Time 5, replicate values", "result": 89.1, "unit": "%"}, {"measurement": "remaining at 10 min, 1 µM", "setting": "[2]; rat, liver microsomes, Metabolic stability, % remaining of RK-701, Rat, Time 10, replicate values", "result": 83.1, "unit": "%"}, {"measurement": "remaining at 20 min, 1 µM", "setting": "[2]; rat, liver microsomes, Metabolic stability, % remaining of RK-701, Rat, Time 20, replicate values", "result": 61.7, "unit": "%"}, {"measurement": "remaining at 60 min, 1 µM", "setting": "[2]; rat, liver microsomes, Metabolic stability, % remaining of RK-701, Rat, Time 60, replicate values", "result": 35.6, "unit": "%"}, {"measurement": "microsomal CLint at 1 μM", "setting": "[2]; rat, liver microsomes, read-out: Metabolic stability in liver microsomes CLint", "result": 33, "unit": "µL/min/mg"}, {"measurement": "IC50", "setting": "G9a", "result": "21.8 nM and 23.9 nM"}]}]}
